pIC50, pKi: −log10 of the molar value. Like-named read-outs stand apart in the source and are kept apart here.
Legend:
Assay type in all cases: biochemical
[1] = target: T1, CYP3A4 (Homo sapiens, UniProt P08684); test: Determination of IC50 against CYP3A4 by measurement of inhibition of testosterone metabolism (human liver microsomes, 6-β-OH-testosterone by LC-MS/MS); design: 0.1 mg/mL human liver microsomes; settings: read-out: IC50 (Testo.)
Procedure, shortened: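 Human liver microsomes (0.1 mg/mL) incubated with 25 μM testosterone and 1 mM NADPH in 100 mM potassium phosphate, pH 7.4, for eight minutes. 6-β-OH-testosterone measured by LC-MS/MS in MRM mode against an internal standard and quantified from a metabolite standard curve.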

[2] = target: T1, CYP3A4; test: Determination of IC50 against CYP3A4 by measurement of inhibition of midazolam metabolism (human liver microsomes, 1-hydroxymidazolam by LC-MS/MS); design: 0.1 mg/mL human liver microsomes; settings: 2 μM midazolam, 0.1 mg/mL human liver microsomes
Procedure, shortened: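 Human liver microsomes (0.1 mg/mL) incubated 8 min with 2 μM midazolam and 1 mM NADPH in 100 mM potassium phosphate, pH 7.4. 1-Hydroxymidazolam quantified by LC-MS/MS (MRM) as peak area ratio to internal standard against a metabolite standard curve.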

[3] = target: T1, CYP3A4; test: Determination of compound Kiapp against recombinant CYP3A4 enzyme (BFC fluorescent substrate)
Procedure, shortened: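 Recombinant CYP3A4 (5.5 or 8 nM, with or without b5 depending on source) pre-incubated with inhibitor ≥30 min at room temperature in 100 mM sodium phosphate pH 7.0, 5 mM TCEP, 2% DMF. Reaction started with 200 uM NADPH and 5 uM BFC; initial fluorescence rates over 5 min fitted to Morrison tight-binding (non-partial) or Szedlacsek (partial) equations for Kiapp.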

[4] = Baculo. enzyme preparation, read-out: Kiapp (BFC, Baculo.)
[5] = Super. enzyme preparation, read-out: Kiapp (BFC, Super.)

T1 sequence (P08684 whole entry): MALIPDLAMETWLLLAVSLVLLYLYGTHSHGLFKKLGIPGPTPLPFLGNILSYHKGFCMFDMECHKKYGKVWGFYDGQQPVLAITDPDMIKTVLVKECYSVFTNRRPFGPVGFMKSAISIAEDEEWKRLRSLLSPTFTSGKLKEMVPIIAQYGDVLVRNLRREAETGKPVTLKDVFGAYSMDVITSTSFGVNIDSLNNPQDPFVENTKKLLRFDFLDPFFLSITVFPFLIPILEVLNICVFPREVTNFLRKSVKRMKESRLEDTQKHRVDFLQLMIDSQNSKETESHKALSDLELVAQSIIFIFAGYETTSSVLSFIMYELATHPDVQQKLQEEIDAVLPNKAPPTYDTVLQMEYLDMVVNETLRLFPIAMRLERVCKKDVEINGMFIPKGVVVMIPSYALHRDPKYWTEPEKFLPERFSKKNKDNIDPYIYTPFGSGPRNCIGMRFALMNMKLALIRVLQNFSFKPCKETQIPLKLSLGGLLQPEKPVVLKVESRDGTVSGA

| Compound | pIC50 [1] | pIC50 [2] | pKi [3, 4] | pKi [3, 5] |
| --- | --- | --- | --- | --- |
| CCCN(C)C(=O)c1ccccc1S(=O)(=O)Nc1cncc(OC)c1 [Example 245, 2-{[(5-methoxypyridin-3-yl)amino]sulfonyl}-N-methyl-N-propylbenzamide] | 7.20 | 7.54 | 6.79 | 7.73 |
| CCCN(CCOC)C(=O)c1ccccc1S(=O)(=O)Nc1cncc(OC)c1 [Example 246, N-(2-methoxyethyl)-2-{[(5-methoxypyridin-3-yl)amino]sulfonyl}-N-propylbenzamide] | 7.14 | 7.44 | 7.30 | 7.73 |
| COc1cncc(NS(=O)(=O)c2ccc(OCCN3CCOCC3)cc2C(=O)N(C)C(C)C)c1 [Example 247, N-isopropyl-2-{[(5-methoxypyridin-3-yl)amino]sulfonyl}-N-methyl-5-(2-morpholin-4-ylethoxy)benzamide] | 6.97 | 7.27 | 7.32 | 7.05 |
| COc1cncc(NS(=O)(=O)c2ccc(OCCCN(C)C)cc2C(=O)N(C)C(C)C)c1 [Example 248, 5-[3-(dimethylamino)propoxy]-N-isopropyl-2-{[(5-methoxypyridin-3-yl)amino]sulfonyl}-N-methylbenzamide] | 6.63 | 6.97 | 6.36 | 6.71 |
| CCOc1ccncc1NS(=O)(=O)c1ccccc1C(=O)NC(C)(C)C [Example 249, N-(tert-butyl)-2-{[(4-ethoxy-pyridin-3-yl)amino]sulfonyl} benzamide] | 7.35 | 7.55 | 7.22 | 7.42 |
| CCOc1ccncc1NS(=O)(=O)c1ccccc1C(=O)NCc1ccc(F)c(C(F)(F)F)c1 [Example 250, 2-{[(4-ethoxypyridin-3-yl)amino]sulfonyl}-N-[4-fluoro-3-(trifluoromethyl)benzyl]benzamide] | 8.15 | 8.00 | 8.37 | 8.50 |
| CCOc1ccncc1NS(=O)(=O)c1ccccc1C(=O)N(C)Cc1ccc(F)c(F)c1 [Example 251, N-(3,4-difluorobenzyl)-2-{[(4-ethoxypyridin-3-yl)amino]sulfonyl}-N-methylbenzamide] | 7.92 | 8.00 | 8.07 | 8.27 |
| CCOc1ccncc1NS(=O)(=O)c1ccccc1C(=O)NCc1ccc(F)c(F)c1 [Example 252, N-(3,4-difluorobenzyl)-2-{[(4-ethoxypyridin-3-yl)amino]sulfonyl}benzamide] | 8.05 | 8.05 | 7.77 | 8.27 |
| COc1cncc(NS(=O)(=O)c2ccc(OCCN3CCNCC3)cc2C(=O)NCc2ccc(F)cc2)c1 [Example 253, N-(4-fluorobenzyl)-2-{[(5-methoxypyridin-3-yl)amino]sulfonyl}-5-(2-piperazin-1-ylethoxy)benzamide] | 7.10 | 7.30 | 6.69 | 7.45 |
| COc1ccncc1NS(=O)(=O)c1ccccc1C(=O)NC(C)(C)C [Example 254, N-(tert-butyl)-2-{[(4-methoxypyridin-3-yl)amino]sulfonyl}benzamide] | 6.92 | 7.40 | 6.55 | 6.91 |
| COc1ccncc1NS(=O)(=O)c1ccccc1C(=O)NCc1ccc(F)c(C(F)(F)F)c1 [Example 255, N-[4-fluoro-3-(trifluoromethyl)benzyl]-2-{[(4-methoxypyridin-3-yl)amino]sulfonyl}benzamide] | 8.05 | 8.15 | 7.64 | 8.39 |
| COc1ccncc1NS(=O)(=O)c1ccccc1C(=O)N(C)Cc1ccc(F)c(F)c1 [Example 256, N-(3,4-difluorobenzyl)-2-{[(4-methoxypyridin-3-yl)amino]sulfonyl}-N-methylbenzamide] | 7.80 | 7.84 | 7.52 | 8.28 |
| COc1ccncc1NS(=O)(=O)c1ccccc1C(=O)NCc1ccc(F)c(F)c1 [Example 257, N-(3,4-difluorobenzyl)-2-{[(4-methoxypyridin-3-yl)amino]sulfonyl}benzamide] | 7.85 | 7.82 | 7.00 | 7.85 |
| COc1cncc(NS(=O)(=O)c2ccccc2C(=O)NCCc2ccccc2F)c1 [Example 258, N-[2-(2-fluorophenyl)ethyl]-2-{[(5-methoxypyridin-3-yl)amino]sulfonyl}benzamide] | 7.96 | 8.22 | 7.29 | 8.19 |
| Cc1ccncc1NS(=O)(=O)c1ccccc1C(=O)NCc1ccc(F)c(F)c1 [Example 259, N-(3,4-difluorobenzyl)-2-{[(4-methylpyridin-3-yl)amino]sulfonyl}benzamide] | 7.82 | 7.82 | 6.87 | 7.90 |
| CCCCNC(=O)c1ccccc1S(=O)(=O)Nc1cnccc1C [Example 260, N-butyl-2-{[(4-methylpyridin-3-yl)amino]sulfonyl}benzamide] | 7.19 | 7.33 | 6.31 | 7.15 |
| COCCNC(=O)c1ccccc1S(=O)(=O)Nc1cccnc1 [Example 261, N-(2-methoxyethyl)-2-[(pyridin-3-ylamino)sulfonyl]benzamide] | 6.20 | 6.59 | < 6.00 | 6.34 |

Other lines, results leading:

| pIC50 [1] | pIC50 [2] | pKi [3, 4] | pKi [3, 5] | Compound |
| --- | --- | --- | --- | --- |
| 8.12 | 8.30 | 7.99 | 8.79 | COc1cncc(NS(=O)(=O)c2ccccc2C(=O)NCc2ccc(F)c(Cl)c2)c1 [Example 262, N-(3-chloro-4-fluorobenzyl)-2-{[(5-methoxypyridin-3-yl)amino]sulfonyl}benzamide] |
| 7.96 | 8.05 | 7.26 | 8.27 | COc1cncc(NS(=O)(=O)c2ccccc2C(=O)NCCc2ccccc2OC)c1 [Example 263, N-[2-(2-methoxyphenyl)ethyl]-2-{[(5-methoxypyridin-3-yl)amino]sulfonyl}benzamide] |
| 7.24 | 7.59 | 7.46 | 8.01 | COc1cncc(NS(=O)(=O)c2ccc(OC3CCNCC3)cc2C(=O)NCc2ccc(F)cc2)c1 [Example 264, N-(4-fluorobenzyl)-2-{[(5-methoxypyridin-3-yl)amino]sulfonyl}-5-(piperidin-4-yloxy)benzamide] |
| 7.39 | 7.64 | 7.53 | 7.90 | COc1cncc(NS(=O)(=O)c2ccc(OCCN3CCOCC3)cc2C(=O)NCc2ccc(F)cc2)c1 [Example 265, N-(4-fluorobenzyl)-2-{[(5-methoxypyridin-3-yl)amino]sulfonyl}-5-(2-morpholin-4-ylethoxy)benzamide] |
| 6.96 | 7.27 | 6.84 | 7.57 | COc1cncc(NS(=O)(=O)c2ccc(OCCCN(C)C)cc2C(=O)NCc2ccc(F)cc2)c1 [Example 266, 5-[3-(dimethylamino)propoxy]-N-(4-fluorobenzyl)-2-{[(5-methoxypyridin-3-yl)amino]sulfonyl}benzamide] |
| 6.67 | 6.92 | 6.57 | 7.36 | COc1cncc(NS(=O)(=O)c2ccc(F)cc2C(=O)N2CCCC(C)C2)c1 (centres unmarked) [Example 267, 4-fluoro-N-(5-methoxypyridin-3-yl)-2-[(3-methylpiperidin-1-yl)carbonyl]benzenesulfonamide] |
| 7.20 | 7.36 | 6.96 | 7.71 | CCCCCN(C)C(=O)c1cc(Cl)ccc1S(=O)(=O)Nc1cncc(OC)c1 [Example 268, 5-chloro-2-{[(5-methoxypyridin-3-yl)amino]sulfonyl}-N-methyl-N-pentylbenzamide] |
| 7.89 | 8.05 | 7.74 | 8.48 | CCOc1ccncc1NS(=O)(=O)c1ccccc1C(=O)NCCc1ccccc1C [Example 269, 2-{[(4-ethoxypyridin-3-yl)amino]sulfonyl}-N-[2-(2-methylphenyl)ethyl]benzamide] |
| 7.28 | 7.66 | 6.45 | 7.40 | CCOc1ccncc1NS(=O)(=O)c1ccccc1C(=O)NC(C)C1CC1 (centres unmarked) [Example 270, N-(1-cyclopropylethyl)-2-{[(4-ethoxypyridin-3-yl)amino]sulfonyl}benzamide] |
| 7.68 | 7.74 | 6.93 | 7.76 | CCOc1ccncc1NS(=O)(=O)c1ccccc1C(=O)NCCC(C)C [Example 271, 2-{[(4-ethoxypyridin-3-yl)amino]sulfonyl}-N-(3-methylbutyl)benzamide] |
| 7.72 | 7.92 | 7.17 | 8.25 | CCCCCN(C)C(=O)c1ccccc1S(=O)(=O)Nc1cnccc1OCC [Example 272, 2-{[(4-ethoxypyridin-3-yl)amino]sulfonyl}-N-methyl-N-pentylbenzamide] |
| 7.34 | 7.60 | 7.15 | 8.05 | CCCCN(C)C(=O)c1ccccc1S(=O)(=O)Nc1cnccc1OCC [Example 274, N-butyl-2-{[(4-ethoxypyridin-3-yl)amino]sulfonyl}-N-methylbenzamide] |

Reference: patent publication US7868026B2, “Therapeutic compounds” (Pfizer Inc., priority 2005, dated 2011)
